# Measured values reported in patent US10517846B2, “Pharmaceutical compositions for treating acne” (Dr. Reddy's Laboratories Ltd., priority 2016, dated 2019).
# Key:
# [1] = cited from earlier work
# [2] = oral; patients with severe acne; cited from earlier work
# [3] = Solubility studies for isotretinoin using non-aqueous solvents; assay type: physicochemical; settings: organic solvent or mixture
# Procedure: Solubility studies for isotretinoin were carried out using non-aqueous solvents as mentioned in table 1.
smiles,measurement,setting,value
"CC1=C(/C=C/C(C)=C/C=C/C(C)=C\C(=O)O)C(C)(C)CCC1 [isotretinoin, (2Z,4E,6E,8E)-3,7-dimethyl-9-(2,6,6-trimethylcyclohex-1-en-1-yl)nona-2,4,6,8-tetraenoic acid]",water solubility,[1],very low water solubility
same,"long-term remission, share of patients",[2],about 80%
same,solubility,[3]; solvent Acetone,30 mg/mL
same,solubility,[3]; solvent Dichloromethane,12 mg/mL
same,solubility,[3]; solvent Ethanol,10 mg/mL
same,solubility,[3]; solvent Isopropyl alcohol,12 mg/mL
same,solubility,[3]; solvent Methanol,10 mg/mL
